Here are results for 11 compounds from ChEMBL document CHEMBL1201862, “PubChem BioAssay data set” (2004).

Among the test systems are U-251; LXFL 529; ACHN; SW-620; TK-10; LOX IMVI; SF-268; OVCAR-5; HCT-15; NCI-H460; IGROV-1; SNB-75; OVCAR-8; CAKI-1; COLO 205; HOP-62; KM12; UACC-257.
What all share (assay): NCI tumour cell line growth inhibition, 48 h

Each structure is given as a SMILES string.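 Compound exposure: 48 hours, 5 concentrations, 96-well plates. GI50: concentration for 50% inhibition of growth.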 Active and inactive are the calls of the source. Rule as the data show it: active = GI50 up to about 1.1 µM and inactive = higher.

For `O=C(N/C(=C/c1cccc([N+](=O)[O-])c1)c1nc2cc(Cl)ccc2[nH]1)c1ccccc1`, the GI50 with U-251 was 9.73 µM (inactive); in the assay on LXFL 529, 12.6 µM (inactive); in the assay on ACHN, 11.3 µM (inactive); in the assay with SW-620 it was 5.55 µM (inactive); with TK-10, 3.67 µM (inactive); in the assay on LOX IMVI, 4.53 µM (inactive). Moreover, the GI50 in the assay with SF-268 was 11.7 µM (inactive); in the assay on OVCAR-5, 27.8 µM (inactive); in the assay with HCT-15, 6.01 µM; with NCI-H460, 10.4 µM (inactive); with IGROV-1 it was 4.53 µM (inactive); with SNB-75, 19.2 µM (inactive). For the same compound, the GI50 was 7.5 µM (inactive) with OVCAR-8; 11.1 µM (inactive) in the assay on CAKI-1; 41.9 µM (inactive) in the assay with COLO 205; 17.7 µM (inactive) with HOP-62; 5.41 µM (inactive) in the assay on KM12; 43.8 µM (inactive) in the assay with UACC-257.
As for `C=CC1=CSNN1`, the GI50 with U-251, in the assay with LXFL 529, in the assay with ACHN, with SW-620, with TK-10 and with LOX IMVI was > 100 µM (inactive) throughout. Moreover, the GI50 in the assay with SF-268 is > 100 µM (inactive); in the assay on OVCAR-5, > 100 µM (inactive); in the assay on HCT-15, > 100 µM; in the assay on NCI-H460, > 100 µM (inactive); with IGROV-1 it was > 100 µM (inactive); with SNB-75 it was > 100 µM (inactive). The GI50 in the assay with OVCAR-8, in the assay on CAKI-1, in the assay with COLO 205, with HOP-62, in the assay on KM12 and with UACC-257 was > 100 µM (inactive) throughout.
For `COC(=O)CCC(=O)CC(=O)C(=O)Nc1ccc(F)cc1`, the GI50 in the assay on U-251, with LXFL 529, in the assay with ACHN, in the assay with SW-620, in the assay on TK-10 and with LOX IMVI was > 100 µM (inactive) throughout. In addition, the GI50 in the assay on SF-268 was > 100 µM (inactive); in the assay with OVCAR-5, > 100 µM (inactive); with HCT-15 it was > 100 µM; in the assay with NCI-H460, > 100 µM (inactive); with IGROV-1, > 100 µM (inactive); in the assay with SNB-75, > 100 µM (inactive). Further, the GI50 in the assay with OVCAR-8, with CAKI-1, with COLO 205, in the assay on HOP-62, in the assay with KM12 and in the assay on UACC-257 was > 100 µM (inactive) throughout.
`CN(C)c1cccc(-c2cc(O)c3cc4c(cc3n2)OCO4)c1`: the GI50 is 0.247 µM (active) in the assay with U-251; 0.13 µM (active) in the assay with LXFL 529; 0.378 µM (active) in the assay with ACHN; 0.124 µM (active) with SW-620; 1.83 µM (inactive) with TK-10; 0.192 µM (active) with LOX IMVI. Also, the GI50 with SF-268 was 0.327 µM (active); in the assay on OVCAR-5, 0.274 µM (active); with HCT-15 it was 0.285 µM; in the assay with NCI-H460, 0.278 µM (active); with IGROV-1, 0.625 µM (active); in the assay with SNB-75, 0.054 µM (active). Besides, the GI50 in the assay with OVCAR-8 is 0.363 µM (active); in the assay with CAKI-1, > 100 µM (inactive); in the assay on COLO 205, 0.2 µM (active); with HOP-62, 0.274 µM (active); with KM12 it was 0.0456 µM (active); with UACC-257, 0.916 µM (active).
As to `CCOc1ccc2c(c1)[n+]([O-])c(-c1ccc(Br)cc1)c(N)[n+]2[O-]`, the GI50 with U-251 is 47.3 µM (inactive); in the assay on LXFL 529 it was 52.2 µM (inactive); in the assay with ACHN, 47.2 µM (inactive); with SW-620, > 100 µM (inactive); in the assay with TK-10, > 100 µM (inactive); with LOX IMVI, > 100 µM (inactive). Further, the GI50 in the assay on SF-268 was 42.8 µM (inactive); with OVCAR-5, > 100 µM (inactive); in the assay with HCT-15 it was 47 µM; in the assay on NCI-H460 it was 47.3 µM (inactive); with IGROV-1, 67 µM (inactive); with SNB-75 it was > 100 µM (inactive). Also, the GI50 is 57.7 µM (inactive) with OVCAR-8; 27.2 µM (inactive) with CAKI-1; 24.2 µM (inactive) in the assay with COLO 205; 67.6 µM (inactive) with HOP-62; 85.5 µM (inactive) in the assay with KM12; 59.4 µM (inactive) in the assay with UACC-257.
Turning to `CC1=C(c2ccccc2)C(c2ccccc2)=C(c2ccccc2)C2(c3ccccc3)C(=O)C(C)CN12` (centres undefined), the GI50 in the assay on U-251 is 30.3 µM (inactive); in the assay on LXFL 529 it was 43.8 µM (inactive); with ACHN it was 41.4 µM (inactive); in the assay on SW-620 it was 79.1 µM (inactive); with LOX IMVI, 58.7 µM (inactive); in the assay with SF-268 it was > 100 µM (inactive). Also, the GI50 is 49.9 µM (inactive) with OVCAR-5; 61.2 µM in the assay on HCT-15; 32.7 µM (inactive) with NCI-H460; 99.5 µM (inactive) in the assay on IGROV-1; 19.4 µM (inactive) in the assay on SNB-75; 17.9 µM (inactive) with OVCAR-8. In addition, the GI50 is 57.3 µM (inactive) in the assay on CAKI-1, > 100 µM (inactive) in the assay on HOP-62, 43.1 µM (inactive) in the assay with KM12 and 30.5 µM (inactive) in the assay on UACC-257.
Consider `O=C1C[C@@H]2[C@@H](CCC23CCCC3)N1`, for which the GI50 in the assay with U-251, in the assay on LXFL 529, in the assay on ACHN, in the assay on SW-620, with TK-10 and in the assay on LOX IMVI was > 100 µM (inactive) each time. The GI50 was > 100 µM (inactive) with SF-268; > 100 µM (inactive) in the assay on OVCAR-5; > 100 µM in the assay on HCT-15; > 100 µM (inactive) in the assay on NCI-H460; > 100 µM (inactive) in the assay on IGROV-1; > 100 µM (inactive) in the assay with SNB-75. Moreover, the GI50 in the assay on OVCAR-8, with CAKI-1, in the assay on COLO 205, in the assay on HOP-62, in the assay with KM12 and in the assay with UACC-257 was > 100 µM (inactive) each time.
Consider `C=C1CC2CC[C@@]34C[C@@H]5O[C@@H]6C(O[C@H]7CC[C@H](CC(=O)OC8[C@@H](C)C9OC%10C[C@]%11(C[C@@H]%12O[C@@]%13(C[C@@H](C)[C@@H]%12O%11)C[C@H](C)[C@@H]%11OC%12CC(C(O)CO)OC%12C[C@@H]%11O%13)OC%10CC9O[C@H]8C[C@H]8O[C@@H](CC[C@@H]1O2)C[C@@H](C)C8=C)O[C@@H]7[C@@H]6O3)C5O4` (some centres undefined), for which the GI50 is 0.00103 µM (active) in the assay with U-251; 0.000564 µM (active) with LXFL 529; 0.0038 µM (active) in the assay on ACHN; 0.000485 µM (active) in the assay on SW-620; 0.00863 µM (active) in the assay on TK-10; 0.000469 µM (active) in the assay with LOX IMVI. The GI50 with SF-268 was 0.00229 µM (active); in the assay on OVCAR-5, 0.00904 µM (active); in the assay on HCT-15, 0.000476 µM; in the assay on NCI-H460 it was 8.26e-05 µM (active); in the assay on IGROV-1, 0.00248 µM (active); with SNB-75, 0.000434 µM (active). Besides, the GI50 was 0.00249 µM (active) in the assay with OVCAR-8; 0.000484 µM (active) in the assay with CAKI-1; 0.000667 µM (active) in the assay with COLO 205; 0.00141 µM (active) in the assay on HOP-62; 0.000494 µM (active) with KM12; 0.000262 µM (active) in the assay on UACC-257.
As for `O=C1c2ccccc2C(=O)c2c(O)c(O)cc(O)c21` [PURPURIN], the GI50 is 35.6 µM (inactive) with U-251; 37.2 µM (inactive) in the assay with LXFL 529; 27.4 µM (inactive) in the assay on ACHN; 40.1 µM (inactive) in the assay on SW-620; 81.3 µM (inactive) with TK-10; 43.7 µM (inactive) with LOX IMVI. For the same compound, the GI50 was 42.4 µM (inactive) with SF-268; 80.7 µM (inactive) in the assay on OVCAR-5; 36.5 µM with HCT-15; 34.5 µM (inactive) in the assay with NCI-H460; 31.6 µM (inactive) in the assay on IGROV-1; 85.9 µM (inactive) with SNB-75. Further, the GI50 was 55.5 µM (inactive) with OVCAR-8; 44 µM (inactive) with CAKI-1; 34 µM (inactive) with COLO 205; 23.7 µM (inactive) with HOP-62; 41.5 µM (inactive) in the assay with KM12; 49.4 µM (inactive) in the assay with UACC-257.
As to `CC(C)(C)OC(=O)NCCc1cccc2c1oc1c(CCC(=O)O)cccc12`, the GI50 in the assay on U-251, in the assay with LXFL 529, with ACHN, in the assay with SW-620, in the assay with TK-10 and in the assay with LOX IMVI was > 100 µM (inactive) throughout. The GI50 in the assay on SF-268 was > 100 µM (inactive); with OVCAR-5, > 100 µM (inactive); in the assay with HCT-15 it was > 100 µM; in the assay with NCI-H460 it was > 100 µM (inactive); in the assay with IGROV-1, > 100 µM (inactive); in the assay on SNB-75 it was 95.9 µM (inactive). For the same compound, the GI50 in the assay with OVCAR-8, in the assay with CAKI-1, in the assay on COLO 205, in the assay on KM12 and with UACC-257 was > 100 µM (inactive) in each case.
Turning to `N#C/C(=C/c1ccsc1)C(=O)c1ccccc1`, the GI50 in the assay on U-251, with LXFL 529, in the assay on ACHN, with SW-620, in the assay with TK-10 and with LOX IMVI was > 100 µM (inactive) throughout. Further, the GI50 is > 100 µM (inactive) in the assay with SF-268; > 100 µM (inactive) in the assay with OVCAR-5; > 100 µM with HCT-15; > 100 µM (inactive) in the assay with NCI-H460; > 100 µM (inactive) with SNB-75; > 100 µM (inactive) with OVCAR-8. The GI50 in the assay with CAKI-1, in the assay with COLO 205, with HOP-62, with KM12 and in the assay with UACC-257 was > 100 µM (inactive) each time.
